Reference: patent publication US20260184710A1, “CASITAS B-LINEAGE LYMPHOMA PROTOONCOGENE B (CBL-B) DEGRADING COMPOUNDS AND ASSOCIATED METHODS OF USE” (Arvinas Operations, Inc., priority 2022, published 2026)

Legend:
Cbl-b [1] = biological target: T1, Cbl-b (Homo sapiens, UniProt Q13191); test: Cbl-b Degradation Method B (Nano-Glo HiBiT lytic detection); assay type: cell-based; conditions: Cbl-b-HiBit KI Jurkat Cells, incubated at least 6-24 hours; for DC50: half maximal degradation, read-out: Cbl-b Degredation Method B IC50; for Dmax: maximum degradation observed, read-out: Cbl-b Degredation Method B Dmax (%)
T1 construct: Cbl-b-HiBit KI Jurkat Cells were purchased from Promega; host or cells: Cbl-b-HiBiT knock-in Jurkat cells
Outline: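 An 11-point, 3-fold compound dilution was applied for 6-24 hours to Jurkat cells carrying HiBiT-tagged endogenous Cbl-b. Lytic HiBiT luminescence quantified residual protein. Outputs are DC50 and Dmax relative to DMSO control.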

Cbl-b [2] = biological target: T1, Cbl-b; test: Cbl-b Degradation Method A (FACS, anti-Cbl-b antibody staining); assay type: cell-based; conditions: Cbl-b-HiBit KI Jurkat Cells, incubated at least 20 hours; for DC50: half maximal degradation, read-out: Cbl-b Degredation Method A IC50; for Dmax: Jurkat, maximum degradation observed, read-out: Cbl-b Degredation Method A Dmax (%)
Outline: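 Readout is flow cytometry of fixed, permeabilized cells immunostained for Cbl-b (primary 1:200, AF488 secondary). Cells were Cbl-b-HiBit knock-in Jurkat, exposed to compound ≥20 h at 37 °C; half-maximal degradation concentration (DC50) and maximal degradation (Dmax) calculated relative to control.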

T1 sequence (Q13191 whole entry): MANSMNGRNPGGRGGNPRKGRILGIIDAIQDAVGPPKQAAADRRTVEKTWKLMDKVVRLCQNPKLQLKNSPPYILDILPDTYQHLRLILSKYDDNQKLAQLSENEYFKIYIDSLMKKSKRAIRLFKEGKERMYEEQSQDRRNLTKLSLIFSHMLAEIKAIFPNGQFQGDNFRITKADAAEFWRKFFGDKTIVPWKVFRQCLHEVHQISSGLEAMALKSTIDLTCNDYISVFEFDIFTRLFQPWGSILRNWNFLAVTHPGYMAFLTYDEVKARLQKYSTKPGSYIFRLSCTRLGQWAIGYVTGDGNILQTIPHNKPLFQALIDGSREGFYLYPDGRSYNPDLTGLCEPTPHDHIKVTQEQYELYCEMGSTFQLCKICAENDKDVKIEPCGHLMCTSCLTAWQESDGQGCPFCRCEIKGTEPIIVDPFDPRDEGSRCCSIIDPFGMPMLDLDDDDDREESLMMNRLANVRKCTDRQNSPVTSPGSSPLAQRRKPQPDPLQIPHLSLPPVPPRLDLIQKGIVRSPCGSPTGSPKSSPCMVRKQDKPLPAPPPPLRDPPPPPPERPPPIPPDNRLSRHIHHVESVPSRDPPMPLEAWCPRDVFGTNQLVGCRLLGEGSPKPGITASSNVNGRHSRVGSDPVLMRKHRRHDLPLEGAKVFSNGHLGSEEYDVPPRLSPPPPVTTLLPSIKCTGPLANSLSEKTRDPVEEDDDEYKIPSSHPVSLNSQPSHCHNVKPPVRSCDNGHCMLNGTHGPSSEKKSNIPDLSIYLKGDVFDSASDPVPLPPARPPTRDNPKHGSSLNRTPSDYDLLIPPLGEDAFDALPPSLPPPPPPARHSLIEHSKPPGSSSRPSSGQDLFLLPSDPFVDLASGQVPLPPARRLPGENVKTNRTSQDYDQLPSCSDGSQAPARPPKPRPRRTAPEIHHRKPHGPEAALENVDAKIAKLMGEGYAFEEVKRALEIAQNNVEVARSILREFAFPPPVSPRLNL

Structure (SMILES)	DC50 (Cbl-b [1])	DC50 (Cbl-b [2])	Dmax (Cbl-b [2])	Dmax (Cbl-b [1])
Cn1cnnc1CC1(c2cccc(N3Cc4c(cc(CN5CCC(N6CC7(CN(c8ccc9c(c8)C(=O)N(C8CCC(=O)NC8=O)C9=O)C7)C6)CC5)cc4C(F)(F)F)C3=O)c2)COC1 (stereo not shown) [Example 106, 2-(2,6-dioxopiperidin-3-yl)-5-[6-(1-{[2-(3-{3-[(4-methyl-4H-1,2,4-triazol-3-yl)methyl]oxetan-3-yl}phenyl)-3-oxo-7-(trifluoromethyl)-2,3-dihydro-1H-isoindol-5-yl]methyl}piperidin-4-yl)-2,6-diazaspiro[3.3]heptan-2-yl]-2,3-dihydro-1H-isoindole-1,3-dione]	> 500 nM	50 to 500 nM	> 70%	
Cn1cnnc1CC1(c2cccc(N3Cc4c(cc(CN5CCN(C6CC7(C6)CN(c6ccc8c(c6)C(=O)N(C6CCC(=O)NC6=O)C8=O)C7)CC5)cc4C(F)(F)F)C3=O)c2)COC1 (stereo not shown) [Example 107, 2-(2,6-dioxopiperidin-3-yl)-5-[6-(4-{[2-(3-{3-[(4-methyl-4H-1,2,4-triazol-3-yl)methyl]oxetan-3-yl}phenyl)-3-oxo-7-(trifluoromethyl)-2,3-dihydro-1H-isoindol-5-yl]methyl}piperazin-1-yl)-2-azaspiro[3.3]heptan-2-yl]-2,3-dihydro-1H-isoindole-1,3-dione]	> 500 nM	5 to 50 nM	< 35%	
Cn1cnnc1CC1(c2cccc(N3Cc4c(cc(CN5CCCC(N6CC7(CCN(c8ccc9c(c8)C(=O)N(C8CCC(=O)NC8=O)C9=O)CC7)C6)C5)cc4C(F)(F)F)C3=O)c2)COC1 (stereo not shown) [Example 108, 2-(2,6-dioxopiperidin-3-yl)-5-[2-(1-{[2-(3-{3-[(4-methyl-4H-1,2,4-triazol-3-yl)methyl]oxetan-3-yl}phenyl)-3-oxo-7-(trifluoromethyl)-2,3-dihydro-1H-isoindol-5-yl]methyl}piperidin-3-yl)-2,7-diazaspiro[3.5]nonan-7-yl]-2,3-dihydro-1H-isoindole-1,3-dione]	5 to 50 nM	5 to 50 nM	< 35%	35 to 70%
Cn1cnnc1CC1(c2cccc(N3Cc4c(cc(CN5CCC[C@@H](CN6CCC(CC7CCN(c8ccc9c(c8)C(=O)N(C8CCC(=O)NC8=O)C9=O)CC7)CC6)C5)cc4C(F)(F)F)C3=O)c2)COC1 (stereo partly drawn) [Example 110, 2-(2,6-dioxopiperidin-3-yl)-5-{4-[(1-{[(3S)-1-{[2-(3-{3-[(4-methyl-4H-1,2,4-triazol-3-yl)methyl]oxetan-3-yl}phenyl)-3-oxo-7-(trifluoromethyl)-2,3-dihydro-1H-isoindol-5-yl]methyl}piperidin-3-yl]methyl}piperidin-4-yl)methyl]piperidin-1-yl}-2,3-dihydro-1H-isoindole-1,3-dione]	> 500 nM	5 to 50 nM	< 35%	
Cn1cnnc1CC1(c2cccc(N3Cc4c(cc(CN5CCC[C@H](CN6CCC(CC7CCN(c8ccc9c(c8)C(=O)N(C8CCC(=O)NC8=O)C9=O)CC7)CC6)C5)cc4C(F)(F)F)C3=O)c2)COC1 (stereo partly drawn) [Example 111, 2-(2,6-dioxopiperidin-3-yl)-5-{4-[(1-{[(3R)-1-{[2-(3-{3-[(4-methyl-4H-1,2,4-triazol-3-yl)methyl]oxetan-3-yl}phenyl)-3-oxo-7-(trifluoromethyl)-2,3-dihydro-1H-isoindol-5-yl]methyl}piperidin-3-yl]methyl}piperidin-4-yl)methyl]piperidin-1-yl}-2,3-dihydro-1H-isoindole-1,3-dione]	> 500 nM	50 to 500 nM		
Cn1cnnc1CC1(c2cccc(N3Cc4c(cc(CN5CCN(C[C@H]6CC[C@H](OC7CCN(c8ccc9c(n8)CN(C8CCC(=O)NC8=O)C9=O)CC7)CC6)CC5)cc4C(F)(F)F)C3=O)c2)COC1 (stereo partly shown) [Example 112, 3-[5-oxo-2-(4-{[(1r,4r)-4-[(4-{[2-(3-{3-[(4-methyl-4H-1,2,4-triazol-3-yl)methyl]oxetan-3-yl}phenyl)-3-oxo-7-(trifluoromethyl)-2,3-dihydro-1H-isoindol-5-yl]methyl}piperazin-1-yl)methyl]cyclohexyl]oxy}piperidin-1-yl)-5H,6H,7H-pyrrolo[3,4-b]pyridin-6-yl]piperidine-2,6-dione]	< 5 nM	5 to 50 nM	35 to 70%	35 to 70%
